These are literature values, as cited in patent US8431724B2, “Iejimalid analoga and uses thereof” (Studiengesellschaft Kohle mbH, priority 2007, dated 2013).

The subject of one data set is P388 leukemia. The note with it: Kobayashi's report.
The test system of data set [1] is panel of 60 standard human cancer cell lines. The note with it: NCI dataset 2005.

Regarding `CO[C@@H]1/C=C(C)/C=C/[C@@H](C)/C=C/C(=O)O[C@H](/C(C)=C/C=C(\C)CNC(=O)[C@H](COS(=O)(=O)[O-])NC=O)[C@@H](C)/C=C/C=C/[C@@H](OC)CC/C=C(C)\C=C\C1.[Na+]` [compound 3, Iejimalide C], the “in vivo activity against P388 leukemia” value in the data set on P388 leukemia is listed as “potent in vivo activity”.
`CO[C@@H]1/C=C(C)/C=C/[C@@H](C)/C=C(\C)C(=O)O[C@H](/C(C)=C/C=C(\C)CNC(=O)[C@H](COS(=O)(=O)[O-])NC=O)[C@@H](C)/C=C/C=C/[C@@H](OC)CC/C=C(C)\C=C\C1.[Na+]` [compound 4, Iejimalide D]: the “in vivo activity against P388 leukemia” value in the data set on P388 leukemia is given as “potent in vivo activity”.
As to Iejimalide A, in data set [1], the GI50 entry is “low nanomolar range” and the TGI entry was “low nanomolar range”.
